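Following 48 hours of exposure in 96-well plates, responses at five concentrations were used to interpolate endpoints linearly. GI50 marks 50% less growth. TGI marks complete inhibition of growth.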

The experiment deals with MDA-MB-468 breast. Put plainly: DTP human tumour cell line panel, 48 h.
Take `Cc1ccc(S(=O)(=O)c2nc(-c3ccccc3)oc2S(C)=O)cc1` (stereo unspecified): the GI50 is 520 nM and the TGI was determined as 2.15 µM.
For `CS(=O)(=O)Nc1cc(-c2ccc3ncc(C#N)c(NCc4ccccc4O)c3c2)cnc1Cl`, in that order: 173 nM and 1.68 µM.
With `C#Cc1nc2ccccc2c(=O)[nH]1`, the GI50 is 199 nM and the concentration for total growth inhibition (TGI) is 0.486 µM.
For `COc1cnc2c(c1)C(=O)c1c-2n(CCCNCCO)c(=O)c2ccncc12`, the GI50 is 283 nM and the TGI came out at 1.65 µM.
The corresponding values for `Cn1cc(-c2ccc3nnc(Sc4ccc5ncccc5c4)n3n2)cn1` are 16400 nM and over 91.4 µM.
As to `O=C([O][Sn]([O]C(=O)c1ccccn1)([c]1ccccc1)[c]1ccccc1)c1ccccn1`, the GI50 is 1450 nM and the TGI is 2.76 µM.
For `O=c1[nH]c2nc(NC3CCOCC3)ncc2cc1Oc1ccc(F)cc1F`, the GI50 is over 25000 nM and the TGI is over 25 µM.
For `COc1ccc2[nH]c(O)c(/C=c3/cc4c(c(-c5ccc(F)c(OC)c5)n3)=Nc3ccccc3-4)c2c1`, the GI50 was 1430 nM and the TGI turned out to be 2.94 µM.
Take `NCCOCCOCCNc1nc(-c2ccc(Cl)cc2)nc(N2CCN(c3ccccn3)CC2)n1`: the GI50 was 1950 nM and the TGI came to 3.99 µM.
For `Cc1nc(Nc2cccnc2)sc1C(=O)/C=C/c1ccc(Cl)cc1`, the GI50 was 2890 nM and the TGI was 8.48 µM.
The corresponding values for `COc1cc(C)c(C2NC(=O)c3ccccc3N2)cc1C` (stereo unspecified) are 754 nM and over 100 µM.
For the compound `Cc1nn2c(/C=C3/C(=O)Nc4cc(Cl)ccc43)c(-c3ccccc3)nc2s1`, the GI50 is 27700 nM and the TGI was over 100 µM.
In the case of `O=C(NCCc1ccccn1)OCc1nc2nc(Cl)nc(N3CCOCC3)c2[nH]1`, the GI50 was 1350 nM and the TGI is 2.88 µM.
Consider `Cc1nc2c(n1C)C(=O)c1ccccc1C2=O`, for which the GI50 is 25100 nM and the TGI was over 100 µM.
The corresponding values for `COc1ccc(-c2nc(-c3nc4ccc(F)cc4[nH]3)c3ccccn23)cc1` are 4120 nM and 57.1 µM.
Take `Cc1c2cc(Cl)c3ccccc3c2c[n+]2ccccc12`: the GI50 was 165 nM and the TGI stood at 0.57 µM.
Turning to `C=CC(=O)Nc1cc(N2CCN(CC)CC2)ccc1Nc1cc(N(C)C(=O)Nc2c(Cl)c(OC)cc(OC)c2Cl)ncn1`, the GI50 was 1680 nM and the TGI came out at 4.16 µM.
For `CCN=C1C=CC(=C(c2ccc(N(CC)CC)cc2)c2ccc(N(CC)CC)cc2)c2ccccc21`, in that order: 30.2 nM and 0.228 µM.
The corresponding values for `O=C1CCC(N2C(=O)c3ccccc3C2=O)C(=O)N1` (stereo unspecified) are over 100000 nM and over 100 µM.
In the case of `O=C(Oc1ccc(CO[N+](=O)[O-])cc1)c1ccccc1`, the concentration for 50% growth inhibition (GI50) is 146 nM and the TGI stood at 0.332 µM.
Regarding `Cc1cc(O)c(C2=NN(c3ccc(S(N)(=O)=O)cc3)C(c3ccc(Cl)cc3)C2)c(C)c1Cl` (stereo unspecified), the GI50 is 10700 nM and the TGI was determined as 24.6 µM.
With `Cc1nc2ccc(NC(=O)CCNC(=O)CCCc3ccc(CC(C(=O)O)C(=O)O)cc3)cc2s1`, the GI50 was over 100000 nM and the total growth inhibition concentration (TGI) is over 100 µM.
As for `c1ccc2c(-c3nc(-c4c[nH]c5ccncc45)cs3)c[nH]c2c1`, the 50% growth inhibitory concentration (GI50) is 226 nM and the total growth inhibition concentration (TGI) was found to be 1.51 µM.
Take `O=c1cc(N/N=C/c2ccc(F)cc2)c2cc(Cl)ccc2[nH]1`: the GI50 is 13300 nM and the concentration for total growth inhibition (TGI) worked out at 49.1 µM.
For `CCN(c1cc(-c2ccc(CN3CCOCC3)cc2)cc(C(=O)NCc2c(C)cc(C)[nH]c2=O)c1C)C1CCOCC1`, in that order: 13400 nM and 30.4 µM.
For `c1ccc(-c2nc(N3CCOCC3)c3c4c(sc3n2)CCCCCC4)nc1`, in that order: 4120 nM and 19 µM.
For `COc1cc2c(cc1OC)C(=O)/C(=C/c1cc(-c3ccc4c(c3)OCO4)n[nH]1)C2`, in that order: 1070 nM and 2.41 µM.
In the case of `COc1cc(NC(=O)CCSc2nc3ccc(C)cc3c(=O)n2Cc2ccccc2)cc(OC)c1OC`, the GI50 is 5390 nM and the TGI was over 100 µM.
Take `O=C(Nc1ccc(-c2nc(-c3cccc(OCCN4CCOCC4)c3)c(-c3ccnc(Br)c3)[nH]2)cc1)c1ccccc1`: the GI50 is 1770 nM and the TGI worked out at 5.7 µM.
The corresponding values for `C=C1CCC2(C#N)[C@H]3[C@H](CC[C@@H]2C)[C@@H](C)C[C@@H](CC(C)(C)NC(=O)CN2CCC2=O)[C@H]13` (stereo partly specified) are 3220 nM and 22.9 µM.
As to `COc1ccc(C(=O)NNc2nc(Cl)nc(N3CCN(C(c4ccccc4)c4ccccc4)CC3)n2)cc1`, the GI50 was 2500 nM and the TGI is 47.5 µM.
On to `COc1ccc(C(O)c2cc3c(N)c(C(=O)Nc4cccc(Cl)c4)sc3nc2C)cc1` (stereo unspecified), for which the GI50 was 286 nM and the TGI is 28.4 µM.
Take `Cn1cc(C2=C(c3cn(C)c4ccc(Cl)cc34)C(=O)NC2=O)c2ccccc21`: the GI50 is 2860 nM and the TGI came to 22 µM.
On to `O=P1(S)OC[C@H]2O[C@@H]3[C@H](F)[C@@H]2OP(O)(=S)OC[C@H]2O[C@H]([C@H](F)[C@@H]2O1)n1cnc2c(ncnc21)NC/C=C/CNc1ncnc2c1ncn23` (stereo partly specified), for which the GI50 was 11500 nM and the TGI was over 100 µM.
In the case of `C1=C2CCCC3=Cc4ccccc4OC23Oc2ccccc21`, the GI50 was 5420 nM and the TGI worked out at 69.1 µM.
On to `CSCCCNC(=O)c1ccc2c(c1)/C(=C/c1[nH]c(C)cc1C)C(=O)N2`, for which the GI50 was 481 nM and the TGI is over 100 µM.
In the case of `Cc1nc(Nc2ccccn2)sc1C(=O)/C=C/c1ccc(Cl)cc1`, the GI50 was 395 nM and the TGI was 5.7 µM.
Consider `OCc1ccc(-c2cscc2-c2ccc(CO)o2)o1`, for which the GI50 is 74 nM and the TGI turned out to be 0.281 µM.

The values above are taken from PubChem BioAssay (NCI).
